{"source": "patent US7838238B2", "about": "“Method for screening anti-HIV Drugs and a diagnostic method of AIDS” (CellFree Sciences Co., Ltd., priority 2008, dated 2010)", "system": "intracellular Gag in SOCS1-siRNA HeLa cells", "assay": "Immunoblotting of intracellular Gag-GFP in SOCS1-siRNA HeLa cells treated with NH4Cl or MG132", "assay_type": "cell-based, human", "method": "(F) HeLa cells were transfected with Cag-GFP and cotransfected with either control-siRNA or SOCS1-siRNA I. After 36 hours, the cells were treated with a mock solution, 10 mM NH4Cl or 10 μM MG132 for another 16 hours. Cell were then harvested and subjected to immunoblotting analysis with anti-GCF or anti-β-actin antibodies.", "note": "Peptide text beside a SMILES is read from it. * marks the point of attachment. Cbz = O=C(OCc1ccccc1)*", "data": [{"smiles": "CC(C)C[C@@H](C=O)NC(=O)[C@H](CC(C)C)NC(=O)[C@H](CC(C)C)NC(=O)OCc1ccccc1", "note": "[MG132] (Cbz-Leu-Leu-Leu-aldehyde)", "values": [{"measurement": "level of intracellular Gag", "setting": "10 μM MG132, 16 hours", "value": "not"}]}, {"smiles": "Cl.N", "note": "[NH4Cl]", "values": [{"measurement": "level of intracellular Gag", "setting": "10 mM NH4Cl, 16 hours", "value": "significantly increased"}]}]}
